In patent publication US10946071B2 (MediciNova, Inc., priority 2018, dated 2021):

How the values were obtained:
[1] = Sanftner et al., Xenobiotica 2009; cited from earlier work
[2] = test system: subjects with primary or secondary progressive multiple sclerosis; assay: Phase 2 randomized, double-blind, placebo-controlled 96 week study: progression of disability (EDSS), Cox proportional-hazards regression; format: in vivo, human; conditions: for Risk of Confirmed Disability Progression: Cox Hazard Ratio (ibudilast vs. placebo): ibudilast 100 mg/d, 90% CI
Procedure: A total of 255 male and female subjects from 21 to 65 years old, inclusive, were enrolled into one of two treatment arms (ibudilast 100 mg/d or matching-placebo). […] During the study, subjects were allowed to change medications from one injectable to the other. […] Inhaled and topical steroids are allowed. If a relapse episode occured, a single course of systemic corticosteroids was permitted, as prescribed by the treating neurologist. Subjects returned to the clinic for follow-up visits on a regular basis at Week 4, 8, 12, 24, 36, 48, 60, 72, 84 and 96.
The double-blind Treatment Phase consisted of a Baseline visit followed by 10 scheduled clinic visits. The Baseline Visit had to have occured within 45 days following the Screening Visit. At the Baseline Visit (Day 1), subjects who completed all of the screening assessments and continued to meet eligibility criteria were randomized to one of two treatment groups (ibudilast 100 mg/d or placebo) in a 1:1 ratio.
Subjects took their first dose of study medication (30 mg ibudilast or placebo) on the evening of the Baseline Visit (Day 1). On the morning of Day 2, all subjects begun a 3 capsule BID dosing regimen through Day 14. Subjects randomized to ibudilast started at 60 mg/d (30 mg BID) on Day 2 and remained on 60 mg/d through Day 14. Beginning on Day 15, all subjects increased dosing to 5 capsules BID regimen; those randomized to the ibudilast treatment arm were taking 100 mg/d.
After Day 15, subjects with intolerable side-effects (e.g., nausea, diarrhea, vertigo) were allowed to reduced their dose to either 4 capsules twice a day (80 mg/d for those taking ibudilast) or 3 capsules twice a day (60 mg/d for those taking ibudilast). Subjects with intolerable side-effects (e.g., nausea, diarrhea, vertigo) at the end of Day 14 were allowed to continue taking 3 capsules twice a day at the Investigator's discretion. At the Investigator's discretion, the daily dose of ibudilast were potentially adjusted between 3 capsules twice a day, 4 capsules twice a day, and 5 capsules twice a day over the first 8 weeks of treatment. At the Investigator's discretion, the daily dose of ibudilast could have been divided and taken three times per day if needed to improve tolerability. […] The dosing interval was either twice a day or 3 times per day, at the Investigator's discretion. The dosing interval could also be changed to between twice and three times per day over the course of the entire study, at the Investigator's discretion.
Progression of disability was measured according to the score on the Expanded Disability Status Scale (EDSS; range, 0 to 10 in 0.5-point increments, with higher scores indicating more disability) with the use of Cox proportional-hazards regression. Confirmed disability progression was defined as an increase in the EDSS score of at least 1.0 point from baseline (or an increase of ≥0.5 points for patients with a baseline EDSS score of >5.0) that was sustained for at least 20 weeks.

CC(C)C(=O)c1c(C(C)C)nn2ccccc12 [ibudilast, 3-isobutyryl-2-isopropylpyrazolo[1,5-a]pyridine]
CNS penetration [1]: good CNS penetration
hazard ratio for 20-week confirmed disability progression (as measured by the EDSS score) with ibudilast as compared with placebo ([2]; all subjects, ibudilast 100 mg/d oral vs placebo, 96 weeks, 95% CI): 0.74
probability of no progression at week 72 ([2]; subgroup receiving interferon-beta, ibudilast arm (placebo arm 0.804)): 0.952
proportion of subjects with disability progression at week 96 (not confirmed progression): ibudilast vs. placebo risk difference ([2]; subgroup receiving interferon-beta, week 96, 90% CI: −0.499 to −0.068): −0.283
time to confirmed disability progression, ibudilast compared with placebo (in words) ([2]; subgroup taking GA as concomitant medication): the placebo arm was superior to ibudilast
Risk of Confirmed Disability Progression: Cox Hazard Ratio (ibudilast vs. placebo) ([2]; subgroup: concomitant medication taking GA (glatiramer acetate)): 1.229
Risk of Confirmed Disability Progression: Cox Hazard Ratio (ibudilast vs. placebo) ([2]; subgroup: concomitant medication taking Interferon-Beta): 0.238
Risk of Confirmed Disability Progression: Cox Hazard Ratio (ibudilast vs. placebo) ([2]; subgroup: no concomitant glatiramer acetate or interferon-beta): 0.672
time to confirmed disability progression, ibudilast compared with placebo (in words) ([2]; the other two subgroups (concomitant interferon-beta; no concomitant medication)): ibudilast was better than placebo
